How the values were obtained:
[1] = tested on: PBP5:ceftaroline complex (1:8); test: NMR CSP titration of SP2 into ceftaroline-saturated PBP5; type: binding, Enterococcus faecium; details: PBP5:ceftaroline 1:8
Protocol: (§1) Data was processed using Topspin 4.1.4 (Bruker) and analyzed using NMRFAM-SPARKY 1.3 and Poky (build number 20240829)[20],[21]. The sequence-specific backbone assignment of PBP5 is publicly available at BMRBID 51690.
(§2) SPs (SP1 to SP7) were titrated into 0.5 mM (^2H,^15N)-labeled and 0.1 mM (^2H,^15N)/^13C ILV labeled PBP5 at molar ratios of 0:1, 5:1, 10:1, 20:1, 40:1, 60:1, and 80:1 (stem peptide/SP:PBP5; molar ratios). 2D [^1H,^15N] TROSY or 2D [^1H,^13C] HMQC spectra were recorded for each titration point. SPs were solubilized in NMR buffer. Chemical shift perturbations (Δδ) between PBP5 and SP bound PBP5 spectra were calculated using Eq. 1,1 Δδppm=ΔδH^2+ΔδX/Y^2 where, X is ^15N or ^13C and Y is the constant i.e., 10 for ^15N and 4 for ^13C.
Residues with significant CSPs were identified by calculating the standard deviation of all CSPs (σ), then excluding any CSPs larger than average+2σ, recalculating σ as a new corrected σ0, and then repetitively removing CSPs above 2σ0 until no additional CSPs can be removed. CSPs above ≥2σ2 was the statistical threshold for ^1H/^15N backbone CSP analysis and ≥2xσ1 for ^1H/^13C methyl ILV data for the interaction of SP1 with PBP5. The same threshold values were used for all other peptides to allow for direct comparison with the SP1/PBP5 interaction. […]

PBP2B = test: 1D 1H STD NMR of SP2 with PBP2B; type: binding, E. faecalis; details: for STD amplification factor, 2000: protein:peptide 1:100, 2 s saturation
From the text: Total saturation time for STD measurements was 2 s.
Overlapped peaks were completely excluded from the analysis.

[2] = tested on: E. faecium D344SRF pCWR624Δpbp5_pbp5_V1; test: MIC by broth microdilution, pbp5_V1; type: cell-based, Enterococcus faecium; details: strain pbp5_V1 (N523A); 37 °C, 20 h; n=3
Protocol: The synthetic genes were purchased from GeneWiz (South Plainfield, NJ). The ribosome binding site sequence AGGAGG (Shine-Dalgarno), and a string of five A’s followed by the sequence […], that corresponds to the first 15 bp found in pbp5 from E. faecium C68 were added upstream of the START codon. The terminator sequence […] was added downstream of the STOP codon. BamHI restriction sites were added to the flanking 5′ and 3′ ends. The synthetic genes were inserted into the vector pCWR624Δpbp5. This vector was derived from pCWR624[10], in which the pbp5 gene from D366 was excised by digestion with BamHI followed by re-ligation of the vector, allowing subsequent insertion of modified synthetic pbp5s into the BamHI site downstream of ftsWEfm and psr from E. faecium C68[10]. The synthetic genes were inserted in a BamHI site located downstream of psr. The proper orientation was confirmed by PCR amplification using the forward primer OR_pbp5_FOR_1 (5′-[…]-3′) and the reverse primer OR_pbp5_REV_1 (5′-[…]-3′). Plasmids were sequence verified for the specific binding site mutations. The resulting constructions were electroporated into the natural pbp5(-) mutant E. faecium D344SRF with a selection on brain heart infusion agar (BHI) plates containing kanamycin (1500 µg/ml).
(§3) E. faecium strains were streaked fresh from −80 °C stored glycerol stocks onto brain heart infusion (BHI) agar plates and incubated for 18 h at 37 °C. Strains harboring the plasmid derivatives were grown under antibiotic pressure on agar plates containing kanamycin at 1500 µg/ml. A single colony was inoculated into BHI or BHI-kanamycin (1500 µg/ml) for overnight cultures (18 h).
MIC determination was performed using a standard broth microdilution technique in duplicate from independent cultures. Overnight cultures were inoculated into 3 ml of BHI or BHI-kanamycin (1500 µg/ml) broth in a dilution of 1:100 and incubated until an OD600 of ~0.5 was reached. Cultures were diluted 1:1000 and inoculated into the 96-well plates with the corresponding antibiotics to be tested. Plates were incubated at 37 °C for 20 h and read by eye. […]

[3] = tested on: E. faecium D344SRF pCWR624Δpbp5_pbp5_V2; test: MIC by broth microdilution, pbp5_V2; type: cell-based, Enterococcus faecium; details: strain pbp5_V2 (N523A_Q627A); 37 °C, 20 h; n=3
Protocol: as §3

PBP5 (PBP5_37-678) = test: NMR chemical shift perturbation titration (2D [1H,15N] TROSY, 2D [1H,13C] ILV methyl HMQC) of stem peptides / PG into PBP5; type: binding, Enterococcus faecium; details: NH CSP titration up to 1:80 PBP5:SP1, not saturated: KD overestimated (upper bound); 10 mM MES pH 5.8, 25 mM NaCl, 308 K; read-out: KD, mean±std of residue-specific values
Protocol: as §1, §2
Residues with significant CSPs were identified by calculating the standard deviation of all CSPs (σ), then excluding any CSPs larger than average+2σ, recalculating σ as a new corrected σ0, and then repetitively removing CSPs above 2σ0 until no additional CSPs can be removed. CSPs above ≥2σ2 was the statistical threshold for ^1H/^15N backbone CSP analysis and ≥2xσ1 for ^1H/^13C methyl ILV data for the interaction of SP1 with PBP5. The same threshold values were used for all other peptides to allow for direct comparison with the SP1/PBP5 interaction. The identical significance analysis was also performed for PenG/ceftaroline saturated PBP5 (1:8 molar ratio of PBP5 to β-lactam antibiotics was used to ensure saturation of an extended time period needed for the SP titrations) SP interaction studies; CSPs above ≥2σ3 was the statistical threshold for ^1H/^15N backbone CSP analysis and ≥2xσ2 for ^1H/^13C methyl ILV data to identify all residues with a statistically significant change in its chemical shift upon SP interaction.
Residue specific KD values were calculated by using Eq. 2[23],2 CSPobs=CSPmax/2PP+S+KD−P+S+KD^2−4[S][P] where P and S are the concentration of PBP5 and SP1, respectively. CSPobs is the experimentally observed chemical shift value and CSPmax is the largest experimentally observed chemical shift value of the residue. […] The lack of saturation was due to the limited amount of available SP peptide due to their difficult synthesis. Residues used for KD calculation were common residues with statistically significant CSPs in the interaction studies of SP1 and SP2 with PBP5 at a 1:80 ratio.

D-Lac-L-Ala-D-iGln-L-Lys(D-iAsn) [SP2]
CSPs with ceftaroline-saturated PBP5 vs β-lactam free and PenG-saturated PBP5, in words [1]: virtually identical
STD % to SP1 (PBP2B; 1H DLacβ): 24.9553%
STD amplification factor as fraction of highest SP1:PBP5 value (PBP2B; 1H DLacβ): 0.2496
STD amplification factor, 2000 (PBP2B; 1H DLacβ): 6.715
STD % to SP1 (PBP2B; 1H DQ2β (first listed)): 52.517%
STD amplification factor as fraction of highest SP1:PBP5 value (PBP2B; 1H DQ2β (first listed)): 0.5252
STD amplification factor, 2000 (PBP2B; 1H DQ2β (first listed)): 14.1315
STD % to SP1 (PBP2B; 1H DQ2β (second listed)): 59.0483%
STD amplification factor as fraction of highest SP1:PBP5 value (PBP2B; 1H DQ2β (second listed)): 0.5905
STD amplification factor, 2000 (PBP2B; 1H DQ2β (second listed)): 15.8889
STD % to SP1 (PBP2B; 1H DQ2γ): 22.6012%
STD amplification factor as fraction of highest SP1:PBP5 value (PBP2B; 1H DQ2γ): 0.226
STD amplification factor, 2000 (PBP2B; 1H DQ2γ): 6.082
STD % to SP1 (PBP2B; 1H K3α): 41.2007%
STD amplification factor as fraction of highest SP1:PBP5 value (PBP2B; 1H K3α): 0.412
STD amplification factor, 2000 (PBP2B; 1H K3α): 11.0865
STD % to SP1 (PBP2B; 1H K3β): 85.7339%
STD amplification factor as fraction of highest SP1:PBP5 value (PBP2B; 1H K3β): 0.8573
STD amplification factor, 2000 (PBP2B; 1H K3β): 23.0696
STD % to SP1 (PBP2B; 1H K3γ): 40.677%
STD amplification factor as fraction of highest SP1:PBP5 value (PBP2B; 1H K3γ): 0.4068
STD amplification factor, 2000 (PBP2B; 1H K3γ): 10.9455
STD % to SP1 (PBP2B; 1H K3δ): 54.3796%
STD amplification factor as fraction of highest SP1:PBP5 value (PBP2B; 1H K3δ): 0.5438
STD amplification factor, 2000 (PBP2B; 1H K3δ): 14.6327
STD % to SP1 (PBP2B; 1H K3ε): 13.0751%
STD amplification factor as fraction of highest SP1:PBP5 value (PBP2B; 1H K3ε): 0.1308
STD amplification factor, 2000 (PBP2B; 1H K3ε): 3.518
STD % to SP1 (PBP2B; 1H LA1α): 44.8726%
STD amplification factor as fraction of highest SP1:PBP5 value (PBP2B; 1H LA1α): 0.4487
STD amplification factor, 2000 (PBP2B; 1H LA1α): 12.0745
STD % to SP1 (PBP2B; 1H LA1β): 28.2398%
STD amplification factor as fraction of highest SP1:PBP5 value (PBP2B; 1H LA1β): 0.2824
STD amplification factor, 2000 (PBP2B; 1H LA1β): 7.599
STD % to SP1 (PBP2B; 1H iNα,DQ2α): 20.0674%
STD amplification factor as fraction of highest SP1:PBP5 value (PBP2B; 1H iNα,DQ2α): 0.2007
STD amplification factor, 2000 (PBP2B; 1H iNα,DQ2α): 5.4
STD % to SP1 (PBP2B; 1H iNβ): 22.5751%
STD amplification factor as fraction of highest SP1:PBP5 value (PBP2B; 1H iNβ): 0.2258
STD amplification factor, 2000 (PBP2B; 1H iNβ): 6.075

CO/N=C(\C(=O)N[C@@H]1C(=O)N2C(C(=O)O)=C(CSc3nc(=O)c(=O)[nH]n3C)CS[C@H]12)c1csc(N)n1 [Ceftriaxone, ceftriaxone]
MIC (µg/ml) [Range] [2]: 3200 [1600-3200] µg/ml
MIC (µg/ml) [Range] [3]: 50 [50-100] µg/ml

D-Lac-L-Ala-D-iGln-L-Lys(D-iAsn)-D-Ala-D-Ala [SP1]
Kd (PBP5 (PBP5_37-678)): ~4 mM
